Experimental findings from US20260200890A1, “ADAR1 INHIBITORS AND METHODS OF USING THE SAME” (AVAMMUNE THERAPEUTICS INC., priority 2022, published 2026) are described below.

For assay [1], the system named is HCT 116. The assay can be described thus: Interferon-stimulated gene expression in HCT 116. The format is cell-based, human. To be noted: FIG. 4, FIGS. 5A-5D.
Assay [2] deals with B16F10 tumors. The assay can be described thus: Tumor MDA5, IFN-β and CXCL10 levels in mice with B16F10 tumors. Format: in vivo, mouse. An excerpt:
(§1) Study: A B16F10 mouse melanoma model was used to evaluate the anti-tumor efficacy of Compound 1, alone or in combination with anti-PD-1 therapy.

In assay [3] the target is T1, Zα domain of ADAR1 p150 (Homo sapiens, UniProt P55265).
T1 construct: 10 μg/ml of Zα domain of ADAR1 was immobilized on CM5 chip using anti-HIS antibody; made in house
T1 sequence (P55265 133-199 limits assumed): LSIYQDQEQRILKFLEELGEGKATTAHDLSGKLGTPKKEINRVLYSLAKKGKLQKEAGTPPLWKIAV
In words: SPR binding assay. The note with it: 6× his tag Zα domain immobilized on CM5 chip, analyte 0-25 μM. The protocol: 6× his tag Za domain of ADAR1 p150 was purified using bacterial purification system. Protein was isolated from supernatant of cell lysate using Ni-NTA resin. For binding assay using SPR, 10 μg/ml of Zα domain of ADAR1 was immobilized on CM5 chip using anti-HIS antibody. Binding was quantified using the following condition below: • Analyte: 25, 12.5, 6.25, 3.125, 1.56, 0.78, 0 μM • Contact time—60 seconds, • Dissociation time—320 seconds • Flow rate—30 μL/minute Running buffer-PBSP+5% DMSO • After curve fitting, Kd values for synthesized compounds was quantified using the instrument software.
On the technique in general: Surface plasmon resonance follows binding to a sensor surface in real time, without labels.

The test system of assay [4] is WT A549 cells. The assay can be described thus: IFN-β induction in WT A549 cells. The format is cell-based, human. The note with it: compared to A549 p110 KO cells, FIG. 1B.
For assay [5], the system named is B16F10. In words: MDA5, IFN-β, CXCL10 levels in murine cancer cell line B16F10. Format: cell-based. The note with it: FIG. 6, FIGS. 7A-7B.
Assay [6] has as its target T2, ADAR1 (Homo sapiens, UniProt P55265).
T2 construct: endogenous in cells; host or cells: p110 KO A549 dual cells
T2 sequence (P55265 1-1226): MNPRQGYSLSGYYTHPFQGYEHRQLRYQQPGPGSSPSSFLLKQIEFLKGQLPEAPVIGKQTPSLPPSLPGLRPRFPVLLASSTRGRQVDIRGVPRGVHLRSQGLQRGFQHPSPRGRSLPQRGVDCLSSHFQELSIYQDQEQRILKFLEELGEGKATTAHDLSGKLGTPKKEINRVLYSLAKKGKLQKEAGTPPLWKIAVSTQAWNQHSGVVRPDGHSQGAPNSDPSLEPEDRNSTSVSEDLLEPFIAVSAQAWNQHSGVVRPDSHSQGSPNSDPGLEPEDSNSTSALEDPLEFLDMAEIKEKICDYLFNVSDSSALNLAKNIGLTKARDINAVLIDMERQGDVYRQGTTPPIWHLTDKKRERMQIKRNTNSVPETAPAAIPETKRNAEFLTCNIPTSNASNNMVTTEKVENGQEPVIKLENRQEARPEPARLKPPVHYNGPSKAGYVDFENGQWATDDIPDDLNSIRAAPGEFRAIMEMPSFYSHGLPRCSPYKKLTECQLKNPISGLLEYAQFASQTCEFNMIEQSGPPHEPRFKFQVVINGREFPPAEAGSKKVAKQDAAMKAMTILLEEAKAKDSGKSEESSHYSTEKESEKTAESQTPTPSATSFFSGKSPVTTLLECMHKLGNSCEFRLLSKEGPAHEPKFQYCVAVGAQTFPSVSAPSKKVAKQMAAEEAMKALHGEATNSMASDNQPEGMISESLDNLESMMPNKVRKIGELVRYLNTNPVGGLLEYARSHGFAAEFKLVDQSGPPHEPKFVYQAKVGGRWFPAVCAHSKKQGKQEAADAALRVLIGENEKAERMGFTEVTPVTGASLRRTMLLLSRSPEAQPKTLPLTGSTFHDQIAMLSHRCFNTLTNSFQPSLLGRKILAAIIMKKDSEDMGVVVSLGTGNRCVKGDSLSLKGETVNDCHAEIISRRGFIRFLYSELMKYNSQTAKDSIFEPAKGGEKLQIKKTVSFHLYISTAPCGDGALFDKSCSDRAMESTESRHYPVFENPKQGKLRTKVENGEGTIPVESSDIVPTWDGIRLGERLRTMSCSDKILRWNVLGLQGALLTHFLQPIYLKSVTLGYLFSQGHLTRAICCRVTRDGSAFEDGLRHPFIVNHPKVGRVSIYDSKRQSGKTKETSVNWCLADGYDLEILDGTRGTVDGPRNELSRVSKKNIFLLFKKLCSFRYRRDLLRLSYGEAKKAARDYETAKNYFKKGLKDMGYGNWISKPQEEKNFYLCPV
The assay can be described thus: ADAR1 Inhibition Assay (IFN fold-induction, Quanti-Luc luminescence, p110 KO A549 dual cells). Format: cell-based. To be noted: IFN fold-induction vs DMSO, 24 and 48 h. Summed up:
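EC50 derived from IFN fold-induction, calculated as sample RLU over average DMSO RLU. Luminescence measured by Quanti-Luc on samples taken after 24 and 48 h of compound exposure (1% DMSO final, 37 °C, 5% CO2). Cells were p110 KO A549 dual, seeded at 20,000 per well in supplemented DMEM.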

In assay [7] the test system is B16F10 melanoma. The assay can be described thus: B16F10 mouse melanoma model, anti-tumor efficacy. Format: in vivo.
Excerpt: as §1

Assay [8] relates to A549 (p110 KO). The assay can be described thus: Interferon-stimulated gene expression in A549 (p110 KO). Format: cell-based, human. To be noted: FIG. 2, FIGS. 3A-3D.
The subject of assay [9] is A549 p110 KO cells. The assay can be described thus: IFN-β induction in A549 p110 KO cells. Format: cell-based, human.

A word on the Kd: it is the concentration at which binding is half-saturated. Read a high Kd as lower affinity. For orientation: EC50 means the concentration that produces a half-maximal response.

As to `CCOC(=O)c1cc(-c2ccccc2)sc1NC(=O)COC(=O)c1cccc(S(N)(=O)=O)c1` [Compound 1, Ethyl 5-phenyl-2-(2-((3-sulfamoylbenzoyl)oxy)acetamido)thiophene-3-carboxylate], the “expression of several interferon-stimulated genes (ISGs)” value in assay [1] and in assay [8] was “dose-dependent expression” throughout. The “tumor MDA5 mRNA levels” value in [2] (B16F10 melanoma model, FIG. 10) is given as “significant increase”. The “induction of IFN-β and CXCL10” value in assay [2] (B16F10 tumors in mice, FIG. 11A, 11B) is “increased induction”. In addition, the Kd in assay [3] is at most 1 µM. In addition, the IFN-β induction entry in assay [4] is reported as “Lower IFN-β induction”. The “upregulation of MDA5, IFN-β, and CXCL10” value in [5] is recorded as “dose-dependent upregulation”. Also, the EC50 in assay [6] was at most 25 µM. In addition, the “tumor growth inhibition (TGI)” value in [7] (B16F10 mouse melanoma model, FIG. 8) is given as 45%. Further, the tumor weight reduction entry in assay [7] (compared to vehicle control, Compound 1 100 μg, FIG. 9) is listed as “about 60%”. Besides, in assay [9] (FIG. 1A), the “IFN-β induction (via ADAR1 inhibition)” value is given as “dose-dependent IFN-β induction”. Also, the “IFN-β induction compared to STING agonists cGAMP, ADU-S100, MSA-002” value in assay [9] (FIG. 1C) is “superior IFN-β induction”.

The compound `CCOC(=O)c1sc(-c2ccccc2)cc1NC(=O)COC(=O)c1cccc(P(=O)(O)O)c1` [Compound 400] gave a Kd in [3] of 1 to 10 µM. The compound further had an EC50 in assay [6] above 100 µM.

`CCOC(=O)c1cc(-c2ccccc2)sc1NC(=O)CNC(=O)Cc1ccc(P(=O)(OCC)OCC)cc1` [Compound 402]: the equilibrium dissociation constant (Kd) in [3] is at most 1 µM. In assay [6], this compound had a half-maximal effective concentration (EC50) of 50 to 100 µM.

With `CCOC(=O)c1cc(-c2ccccc2)[nH]c1NC(=O)[C@@H]1CCN(C(=O)c2cccc(P(=O)(OC)OCC)c2)C1` (stereo partly shown) [Compound 403], in [3], the Kd is above 25 µM. This compound displayed an EC50 in assay [6] of 50 to 100 µM.

With `CCOC(=O)c1cc(-c2ccccc2)sc1NC(=O)CNC(=O)Cc1ccc(P(=O)(O)O)cc1` [Compound 405], the Kd in [3] was at most 1 µM. In addition, the concentration giving a half-maximal response (EC50) in assay [6] was 50 to 100 µM.

`CCOC(=O)c1cc(-c2ccccc2)sc1NC(=O)[C@H]1CCN(C(=O)c2cccc(P(=O)(OCC)OCC)c2)C1` [Compound 406] registered a Kd in assay [3] of at most 1 µM. In assay [6], this compound had a half-maximal effective concentration (EC50) of 50 to 100 µM.

Regarding `CCOC(=O)c1cc(-c2ccccc2)sc1NC(=O)Cn1cc(CNC(=O)c2cccc(P(=O)(O)O)c2)nn1` [Compound 409], in [3], the Kd was at most 1 µM. In assay [6], the EC50 was above 100 µM.

For the compound `CCOC(=O)c1cc(-c2ccccc2)[nH]c1NC(=O)C1CCN(C(=O)c2cccc(NS(C)(=O)=O)c2)C1` (stereo not shown) [Compound 412], the Kd in assay [3] was above 25 µM. The 50% effective concentration (EC50) in assay [6] is above 100 µM.

The compound `CCOC(=O)c1cc(-c2ccccc2)sc1NC(=O)[C@H]1CCCN1C(=O)c1cccc(P(=O)(O)O)c1` [Compound 414] showed a dissociation constant Kd in assay [3] of at most 1 µM. For the same compound, the EC50 in assay [6] is above 100 µM.

`CCOC(=O)c1cc(-c2ccccc2)sc1NC(=O)[C@@H]1CCN(C(=O)c2cccc(P(=O)(OCC)OCC)c2)C1` [Compound 415]: the Kd in assay [3] is at most 1 µM. Besides, the EC50 in [6] was above 100 µM.

`CCOC(=O)c1cc(-c2ccccc2)sc1NC(=O)CNC(=O)c1cccc(S(N)(=O)=O)c1` [Compound 416] returned a Kd in assay [3] of at most 1 µM. In assay [6], the EC50 was above 100 µM.

Compound `CCOC(=O)c1nc(-c2ccccc2)oc1NC(=O)COC(=O)c1cccc(P(=O)(O)O)c1` [Compound 418] yielded a Kd in assay [3] above 10 µM. Besides, the EC50 in assay [6] was above 100 µM.

In assay [3], `CCOC(=O)c1cc(-c2ccccc2)sc1NC(=O)Cn1cc(C(=O)Nc2cccc(P(=O)(O)O)c2)nn1` [Compound 420] showed a dissociation constant Kd of at most 1 µM. In assay [6], this compound displayed an EC50 above 100 µM.

In the case of `CCOC(=O)c1cc(-c2ccccc2)sc1NC(=O)COC(=O)c1ccc(P(=O)(OCC)OCC)cc1` [Compound 421], in assay [3], the Kd was at most 1 µM. The compound further displayed a half-maximal effective concentration (EC50) in assay [6] above 100 µM.

In the case of `CCOC(=O)c1cc(-c2ccccc2)sc1NC(=O)COC(=O)c1ccc(P(=O)(O)O)cc1` [Compound 424], in assay [3], the Kd is at most 1 µM. For the same compound, the EC50 in [6] is above 100 µM.

The compound `CCOC(=O)c1cc(-c2ccccc2)sc1NC(=O)[C@H]1CCN(C(=O)c2cccc(S(N)(=O)=O)c2)C1` [Compound 426] registered a Kd in assay [3] of at most 1 µM. This compound came in with an EC50 in assay [6] above 100 µM.

As for `CCOC(=O)c1cc(-c2ccccc2)sc1NC(=O)Cn1cc(-c2cccc(S(N)(=O)=O)c2)nn1` [Compound 427], the Kd in assay [3] was at most 1 µM. Moreover, the EC50 in [6] was above 100 µM.

Turning to `CCOC(=O)c1cc(-c2ccccc2)sc1NC(=O)[C@H]1CCN(C(=O)c2cccc(S(=O)(=O)NC(C)=O)c2)C1` [Compound 428], in [3], the Kd is at most 1 µM. The EC50 in assay [6] is above 100 µM.
